Assay results: patent US12246034B2, “Animal feed supplement and method” (CAN TECHNOLOGIES, INC., priority 2014, dated 2025)
Where two headings read alike, the source gives them in different places.

Experiments:
sows [1] = test system: sows
Description: A field trial was conducted on a commercial farm in Denmark with 650 highly productive Danbred sows (Landrace x Yorkshire) inseminated with a pure line Duroc boar, between Nov. 17, 2014 and Jan. 16, 2015. A total of 139 sows (total number before analyzes) were included in the trial, divided over 3 subsequent sow groups farrowing over a time span of 6 weeks. For all analyzes SAS software (version 9.3, SAS Institute Inc., Cary, N.C.) was used. Sows received a dry meal transition feed (from gestation to lactation), fed from day 111 of gestation till day 5 of lactation, and were allocated to one of the two treatment groups based on parity. […] The total amount of calcium was equal between both experimental treatments. Number born alive (NBA), stillborn and mummies, litter birth weight, as well as back fat of the sows before farrowing (day 110 of gestation) and at weaning (day 24 of lactation) were measured. Litter weights at 24 hours and 3 days after birth were measured as well. On day 3 after birth blood samples were taken from 6 piglets (2 biggest, 2 medium and 2 smallest) from 65 litters of their tails when they were cut and analyzed on immunoglobulin G (IgG) concentration. Placentas of the sows were collected after the farrowing process was finished, stored in freezers and afterwards scored on redness for an indication of the vascularization of these placentas.

sows [2] = details: for Probability of a higher Vitality score: scored within 30 seconds after birth; for Average weight at weaning: piglets
Description: A trial was conducted at the Sterksel Research farm in the Netherlands (part of Wageningen University Research). A total of 207 sows were used in the trial allocated based on parity over 6 treatments (n=34). […] Calcium levels were the same in all diets.
(§1) Until farrowing, sows received a fixed amount of feed (3.25 kg from day 107-113 and 2.7 kg/sow/day from day 113 till farrowing). During lactation the sows were fed the diets according to a step-up feeding schedule applied (increasing with 0.5 kg/sow/day) the same over the 6 treatments aiming at a peak intake of 7.5 kg/sow/day. Piglets were weaned from the sow at 27 days of age. Performance of sows (e.g. weight, backfat, piglets born alive, stillborn piglets, mortality of piglets) and piglets (e.g. weight at birth, after 48 hours and weaning) was measured on all sows and litters. A subset of sows (19-20 per treatment) was examined more in detail to get insight in the possible mode of action of nitrate. On this subset, blood samples were collected within 4 minutes after birth from 2 piglets out of every 4 piglets born. Blood gasses of umbilical cord blood were analyzed using the i-STAT handheld (Abbott). Vitality of piglets was scored within 30 seconds after birth according to Baxter et al. (2008) with 1 being the lowest and 4 being the highest score for vitality.

[3] = for pCO2 - Measured value / pH / pO2 - Measured value: umbilical cord blood piglets
From the text: as §1

[4] = 0.03% nitrate in lactation diet
[5] = 0.06% nitrate in lactation diet
[6] = 0.09% nitrate in lactation diet
[7] = 0.12% nitrate in lactation diet
[8] = 0.15% nitrate in lactation diet
[9] = across 0.03-0.15% nitrate in feed
[10] = across 0.03-0.15% nitrate in lactation diet
[11] = across 0.03-0.15% nitrate, P<0.05

## O=[N+]([O-])O [Nitrate, nitrate]
Sows [1]; 0.1% Bolifor CNF in transition feed, LS Means ± SEM
  NBA (Number Born Alive): increased
Sows [1]; 0.1% Bolifor CNF in transition feed, log transformed, back-transformed to absolute values
  NBD (Number Born Death), stillborn piglets: decreased
Sows [1]; 0.1% Bolifor CNF, calculated colostrum intake
  Colostrum, CI (Colostrum Intake): No differences were found
Sows [2]; [4]
  Aver. birth weight born alive pigs: 1308 grams
  Average livability %: 76.1%
  Average mortality %: 16.5%
  Average piglet weight after 48 hours: 1.611 kg
  Probability born alive: 0.95
  Probability livability: 0.85
  Probability mortality: 0.10
  Probability weaned: 0.91
  Total born: 16.8
  Total born alive: 15.2
  Total born mummified: 0.6
  Total still born: 1.6
  Total weaned: 12.3
  total birth weight litter life born piglets: 19.5 kg
  total litter weight weaning: 91.8 kg
  Probability of a higher Vitality score: 0.70
  Average weight at weaning: 7.439 kg
Sows [2]; [5]
  Aver. birth weight born alive pigs: 1320 grams
  Average livability %: 78.3%
  Average mortality %: 16.2%
  Average piglet weight after 48 hours: 1.598 kg
  Probability born alive: 0.97
  Probability livability: 0.86
  Probability mortality: 0.10
  Probability weaned: 0.91
  Total born: 16.8
  Total born alive: 15.7
  Total born mummified: 0.7
  Total still born: 1.1
  Total weaned: 12.4
  total birth weight litter life born piglets: 20.3 kg
  total litter weight weaning: 91.8 kg
  Probability of a higher Vitality score: 0.74
  Average weight at weaning: 7.321 kg
Sows [2]; [6]
  Aver. birth weight born alive pigs: 1329 grams
  Average livability %: 81.3%
  Average mortality %: 12.7%
  Average piglet weight after 48 hours: 1.621 kg
  Probability livability: 0.89
  Probability mortality: 0.07
  Probability weaned: 0.94
  Total born: 16.1
  Total born mummified: 0.5
  Total still born: 1.2
  total birth weight litter life born piglets: 20.2 kg
  total litter weight weaning: 96.9 kg
  Probability of a higher Vitality score: 0.80
  Average weight at weaning: 7.472 kg
Sows [2]; [7]
  Aver. birth weight born alive pigs: 1326 grams
  Average livability %: 80.0%
  Average mortality %: 14.0%
  Average piglet weight after 48 hours: 1.640 kg
  Probability born alive: 0.96
  Probability livability: 0.88
  Probability mortality: 0.08
  Probability weaned: 0.93
  Total born: 17.1
  Total born alive: 15.8
  Total born mummified: 0.5
  Total still born: 1.3
  Total weaned: 13.0
  total birth weight litter life born piglets: 20.8 kg
  total litter weight weaning: 98.6 kg
  Probability of a higher Vitality score: 0.78
  Average weight at weaning: 7.550 kg
Sows [2]; [8]
  Aver. birth weight born alive pigs: 1355 grams
  Average livability %: 79.0%
  Average mortality %: 14.8%
  Average piglet weight after 48 hours: 1.692 kg
  Probability born alive: 0.96
  Probability livability: 0.87
  Probability mortality: 0.09
  Probability weaned: 0.92
  Total born: 16.6
  Total born alive: 15.3
  Total born mummified: 0.3
  Total still born: 1.3
  Total weaned: 12.6
  total birth weight litter life born piglets: 21.0 kg
  total litter weight weaning: 96.8 kg
  Probability of a higher Vitality score: 0.79
  Average weight at weaning: 7.608 kg
Sows [2]; [9]
  Total litter weight at weaning on increasing nitrate addition: significantly (P<0.05) improved
  Vitality score of the piglets on increasing nitrate addition: significantly (P<0.05) improved
Sows [2]; [10]
  livability, effect of higher nitrate levels: increase
  mortality, effect of higher nitrate levels: tended to lower
  weaned piglets per litter, effect of higher nitrate levels: more
Sows [2]; [11]
  average piglet birth weight with increasing nitrate levels: higher
  average piglet weight at 48 h with increasing nitrate levels: higher
  total liter birth weight with increasing nitrate levels: higher
Sows [2]; across 0.03-0.15% nitrate, P<0.10
  Probability of weaned piglets with increasing nitrate inclusion: improved
Sows [2]; in vivo
  Probability born alive: 0.96
  Total born alive: 14.9
  Total weaned: 12.7
[3]; 0.03% nitrate in sow diet
  pCO2 - Measured value: 34.1 mmHg
  pH: 7.5
  pO2 - Measured value: 33.8 mmHg
[3]; 0.06% nitrate in sow diet
  pCO2 - Measured value: 34.5 mmHg
  pH: 7.5
  pO2 - Measured value: 35.4 mmHg
[3]; 0.09% nitrate in sow diet
  pCO2 - Measured value: 34.9 mmHg
  pH: 7.5
  pO2 - Measured value: 34.5 mmHg
[3]; 0.12% nitrate in sow diet
  pCO2 - Measured value: 34.5 mmHg
  pH: 7.5
  pO2 - Measured value: 35.6 mmHg
[3]; 0.15% nitrate in sow diet
  pCO2 - Measured value: 34.8 mmHg
  pH: 7.5
  pO2 - Measured value: 35.3 mmHg
[3]; umbilical cord blood, across 0.03-0.15% nitrate
  pO2 values with increasing nitrate addition: linearly improved
